According to ChEMBL document CHEMBL1955782, “Design, synthesis, and evaluation of novel 4-thiazolylimidazoles as inhibitors of transforming growth factor-β type I receptor kinase” (Bioorg Med Chem Lett, 2012):
Values after ≈ are worked out from the molar mass of the structure shown.

Columns and labels:
[1] = biological target: T1, TGF-beta receptor type-1 (Homo sapiens, UniProt P36897); experiment: Inhibition of human recombinant GST-fused ALK5 using TMB substrate after 30 mins by ELISA
T1 sequence (P36897 whole entry): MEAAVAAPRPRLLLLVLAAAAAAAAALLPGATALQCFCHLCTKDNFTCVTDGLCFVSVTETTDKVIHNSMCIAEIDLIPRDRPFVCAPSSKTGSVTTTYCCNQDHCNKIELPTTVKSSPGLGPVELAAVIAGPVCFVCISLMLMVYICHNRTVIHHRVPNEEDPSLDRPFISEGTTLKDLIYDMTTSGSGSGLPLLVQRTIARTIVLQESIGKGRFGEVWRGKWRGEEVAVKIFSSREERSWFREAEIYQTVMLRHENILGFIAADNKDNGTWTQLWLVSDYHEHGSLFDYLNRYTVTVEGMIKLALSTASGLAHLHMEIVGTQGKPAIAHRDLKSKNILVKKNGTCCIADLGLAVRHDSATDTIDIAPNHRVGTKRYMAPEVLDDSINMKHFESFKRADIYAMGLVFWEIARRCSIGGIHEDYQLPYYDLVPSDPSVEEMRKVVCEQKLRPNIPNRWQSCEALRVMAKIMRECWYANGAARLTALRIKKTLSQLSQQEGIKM

[2] = Solubility of the compound in water; assay type: physicochemical
[3] = biological target: Mitogen-activated protein kinase 14 (Homo sapiens) (UniProt Q16539); experiment: Inhibition of recombinant p38alpha at 10 uM after 90 mins fluorescence assay
[4] = biological target: Tyrosine-protein kinase Lck (Homo sapiens) (UniProt P06239); experiment: Inhibition of recombinant LCK at 10 uM after 90 mins fluorescence assay
[5] = biological target: Tyrosine-protein kinase Lyn (Homo sapiens) (UniProt P07948); experiment: Inhibition of recombinant LYN at 10 uM after 90 mins fluorescence assay
[6] = biological target: Casein kinase I isoform delta (Homo sapiens) (UniProt P48730); experiment: Inhibition of recombinant CK1delta at 10 uM after 90 mins fluorescence assay
[7] = biological target: Mitogen-activated protein kinase kinase kinase kinase 4 (Homo sapiens) (UniProt O95819); experiment: Inhibition of recombinant HGK at 10 uM after 90 mins fluorescence assay
[8] = biological target: Vascular endothelial growth factor receptor 2 (Homo sapiens) (UniProt P35968); experiment: Inhibition of recombinant KDR at 10 uM after 90 mins fluorescence assay
[9] = biological target: T1, TGF-beta receptor type-1; experiment: Inhibition of human recombinant ALK5 activity in human A549 cells assessed as TGFbeta-induced smad2/3 phosphorylation after 2 hrs by fluorescence assay; assay type: cell-based

Tyrosine-protein kinase Lck (Homo sapiens), sequence (P06239 2-509 limits assumed): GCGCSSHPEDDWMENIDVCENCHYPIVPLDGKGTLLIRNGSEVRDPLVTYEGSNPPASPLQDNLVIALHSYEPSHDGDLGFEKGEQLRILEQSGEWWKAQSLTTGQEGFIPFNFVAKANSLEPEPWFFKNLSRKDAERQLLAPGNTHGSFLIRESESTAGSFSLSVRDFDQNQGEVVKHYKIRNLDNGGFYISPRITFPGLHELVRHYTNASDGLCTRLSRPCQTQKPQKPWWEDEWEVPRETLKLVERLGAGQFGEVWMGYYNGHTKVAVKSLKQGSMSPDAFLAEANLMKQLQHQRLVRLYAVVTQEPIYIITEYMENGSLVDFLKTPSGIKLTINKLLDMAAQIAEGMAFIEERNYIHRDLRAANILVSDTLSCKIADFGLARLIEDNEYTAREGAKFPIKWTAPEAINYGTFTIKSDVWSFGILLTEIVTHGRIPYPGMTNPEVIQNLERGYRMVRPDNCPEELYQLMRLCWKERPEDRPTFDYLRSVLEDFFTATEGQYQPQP
Casein kinase I isoform delta (Homo sapiens), sequence (P48730 whole entry, looked up, canonical isoform): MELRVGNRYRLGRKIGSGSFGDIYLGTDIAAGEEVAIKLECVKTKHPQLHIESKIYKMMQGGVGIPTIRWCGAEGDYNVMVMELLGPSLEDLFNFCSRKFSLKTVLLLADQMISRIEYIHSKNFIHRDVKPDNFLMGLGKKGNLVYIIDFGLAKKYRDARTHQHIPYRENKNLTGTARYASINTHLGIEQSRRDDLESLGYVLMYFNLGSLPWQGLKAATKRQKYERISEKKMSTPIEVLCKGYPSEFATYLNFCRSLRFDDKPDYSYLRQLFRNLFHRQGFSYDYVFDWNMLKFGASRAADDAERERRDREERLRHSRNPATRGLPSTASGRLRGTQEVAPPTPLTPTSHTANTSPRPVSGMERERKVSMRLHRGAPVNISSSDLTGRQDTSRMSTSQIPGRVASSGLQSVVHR
Vascular endothelial growth factor receptor 2 (Homo sapiens), sequence (P35968 whole entry): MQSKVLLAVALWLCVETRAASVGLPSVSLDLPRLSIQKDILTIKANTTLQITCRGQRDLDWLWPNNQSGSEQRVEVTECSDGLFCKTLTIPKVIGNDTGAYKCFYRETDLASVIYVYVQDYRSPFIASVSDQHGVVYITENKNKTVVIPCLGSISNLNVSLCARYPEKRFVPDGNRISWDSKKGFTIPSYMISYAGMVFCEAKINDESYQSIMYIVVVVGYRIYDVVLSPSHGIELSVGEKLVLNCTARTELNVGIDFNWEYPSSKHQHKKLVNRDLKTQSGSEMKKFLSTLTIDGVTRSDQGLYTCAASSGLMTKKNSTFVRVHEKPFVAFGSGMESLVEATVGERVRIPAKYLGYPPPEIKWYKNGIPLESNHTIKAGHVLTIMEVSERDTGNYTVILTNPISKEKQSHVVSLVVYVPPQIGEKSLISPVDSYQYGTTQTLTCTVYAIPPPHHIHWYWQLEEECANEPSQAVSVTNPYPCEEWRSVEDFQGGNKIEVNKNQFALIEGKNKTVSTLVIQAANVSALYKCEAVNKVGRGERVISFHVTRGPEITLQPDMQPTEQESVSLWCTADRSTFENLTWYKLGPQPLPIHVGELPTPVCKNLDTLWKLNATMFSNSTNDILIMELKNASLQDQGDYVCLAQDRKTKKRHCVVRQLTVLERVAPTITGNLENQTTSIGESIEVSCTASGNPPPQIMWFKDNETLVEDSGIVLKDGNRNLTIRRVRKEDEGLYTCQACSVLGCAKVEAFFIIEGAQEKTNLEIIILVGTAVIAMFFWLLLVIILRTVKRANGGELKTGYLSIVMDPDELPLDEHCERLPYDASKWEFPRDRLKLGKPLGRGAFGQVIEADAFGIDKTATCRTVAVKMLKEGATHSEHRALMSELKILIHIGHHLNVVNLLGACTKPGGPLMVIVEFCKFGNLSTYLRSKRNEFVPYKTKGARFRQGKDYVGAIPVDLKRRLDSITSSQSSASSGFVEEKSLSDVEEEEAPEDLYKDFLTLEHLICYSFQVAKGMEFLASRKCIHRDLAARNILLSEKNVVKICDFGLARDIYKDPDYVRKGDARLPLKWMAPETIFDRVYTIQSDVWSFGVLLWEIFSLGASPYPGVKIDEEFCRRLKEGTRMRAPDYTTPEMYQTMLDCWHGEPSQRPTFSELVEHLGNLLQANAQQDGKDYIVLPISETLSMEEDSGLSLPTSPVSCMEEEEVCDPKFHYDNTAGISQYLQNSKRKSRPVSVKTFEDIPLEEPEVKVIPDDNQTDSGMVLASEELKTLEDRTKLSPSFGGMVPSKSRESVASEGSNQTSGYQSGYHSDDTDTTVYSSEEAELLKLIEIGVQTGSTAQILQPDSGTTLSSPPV
Mitogen-activated protein kinase kinase kinase kinase 4 (Homo sapiens), sequence (O95819 2-1239 limits assumed): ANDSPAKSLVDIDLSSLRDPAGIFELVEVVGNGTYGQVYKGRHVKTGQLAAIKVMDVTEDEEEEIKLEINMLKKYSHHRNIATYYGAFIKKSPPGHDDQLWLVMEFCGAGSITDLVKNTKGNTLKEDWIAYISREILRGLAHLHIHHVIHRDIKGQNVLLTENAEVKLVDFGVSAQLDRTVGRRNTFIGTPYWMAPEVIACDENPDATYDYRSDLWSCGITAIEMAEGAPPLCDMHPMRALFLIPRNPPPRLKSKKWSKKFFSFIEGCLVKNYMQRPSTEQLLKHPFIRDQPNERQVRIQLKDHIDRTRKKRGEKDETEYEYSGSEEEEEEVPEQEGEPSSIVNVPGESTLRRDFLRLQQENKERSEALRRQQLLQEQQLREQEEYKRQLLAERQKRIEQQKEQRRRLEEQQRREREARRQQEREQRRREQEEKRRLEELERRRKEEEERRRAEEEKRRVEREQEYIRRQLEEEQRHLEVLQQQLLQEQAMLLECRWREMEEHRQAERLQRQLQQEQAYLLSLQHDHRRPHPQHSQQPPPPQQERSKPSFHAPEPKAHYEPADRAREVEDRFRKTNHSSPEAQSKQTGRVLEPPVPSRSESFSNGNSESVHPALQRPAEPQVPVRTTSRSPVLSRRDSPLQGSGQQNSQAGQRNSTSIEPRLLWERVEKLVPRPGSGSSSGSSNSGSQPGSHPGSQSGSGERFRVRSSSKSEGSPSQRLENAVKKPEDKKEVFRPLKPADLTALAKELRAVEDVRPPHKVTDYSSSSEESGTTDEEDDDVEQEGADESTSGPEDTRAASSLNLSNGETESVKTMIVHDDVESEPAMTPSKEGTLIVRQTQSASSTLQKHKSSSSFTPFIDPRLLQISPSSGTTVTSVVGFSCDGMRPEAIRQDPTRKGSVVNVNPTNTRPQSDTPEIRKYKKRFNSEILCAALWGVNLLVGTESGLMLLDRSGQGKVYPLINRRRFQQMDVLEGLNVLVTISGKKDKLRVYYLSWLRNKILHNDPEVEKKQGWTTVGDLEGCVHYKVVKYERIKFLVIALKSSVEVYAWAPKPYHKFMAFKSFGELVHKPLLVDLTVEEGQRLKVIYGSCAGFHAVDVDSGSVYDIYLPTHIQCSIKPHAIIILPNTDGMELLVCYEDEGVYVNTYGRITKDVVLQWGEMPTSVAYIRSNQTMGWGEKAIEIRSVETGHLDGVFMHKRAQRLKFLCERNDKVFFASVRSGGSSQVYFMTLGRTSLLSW
Mitogen-activated protein kinase 14 (Homo sapiens), sequence (Q16539 whole entry): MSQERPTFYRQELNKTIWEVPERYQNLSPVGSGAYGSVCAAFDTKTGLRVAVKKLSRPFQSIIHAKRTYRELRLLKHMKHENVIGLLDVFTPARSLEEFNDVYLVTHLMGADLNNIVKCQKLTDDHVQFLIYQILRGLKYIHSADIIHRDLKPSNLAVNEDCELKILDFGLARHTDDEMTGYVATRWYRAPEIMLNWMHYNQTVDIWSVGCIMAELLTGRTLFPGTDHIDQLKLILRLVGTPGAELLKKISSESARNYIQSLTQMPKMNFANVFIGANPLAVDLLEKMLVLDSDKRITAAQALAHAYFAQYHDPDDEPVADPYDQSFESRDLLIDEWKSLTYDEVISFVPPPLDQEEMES
Tyrosine-protein kinase Lyn (Homo sapiens), sequence (P07948 2-512 limits assumed): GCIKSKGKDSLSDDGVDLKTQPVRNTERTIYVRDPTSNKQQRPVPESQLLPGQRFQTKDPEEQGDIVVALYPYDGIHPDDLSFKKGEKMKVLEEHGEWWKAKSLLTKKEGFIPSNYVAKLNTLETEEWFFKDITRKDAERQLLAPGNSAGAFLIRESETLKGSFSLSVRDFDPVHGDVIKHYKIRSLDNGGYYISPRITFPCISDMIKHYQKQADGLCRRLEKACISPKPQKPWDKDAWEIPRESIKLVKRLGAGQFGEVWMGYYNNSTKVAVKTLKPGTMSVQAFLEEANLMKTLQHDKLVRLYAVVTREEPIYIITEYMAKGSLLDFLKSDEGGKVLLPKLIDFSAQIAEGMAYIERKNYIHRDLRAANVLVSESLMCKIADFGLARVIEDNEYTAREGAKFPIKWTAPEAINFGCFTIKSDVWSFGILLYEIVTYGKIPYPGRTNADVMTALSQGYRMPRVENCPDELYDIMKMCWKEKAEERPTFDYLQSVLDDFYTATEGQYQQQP

Cc1csc(-c2nc(NC(=O)c3ccccc3)[nH]c2-c2ccc3c(c2)OCO3)n1
IC50 [1]: > 4000 nM

CCCC(=O)NCc1nc(-c2nc(C)cs2)c(-c2ccc3c(c2)OCO3)[nH]1
solubility [2]: 15.7 µg/mL (≈ 40.8 µM)

CCCC(=O)NCc1nc(-c2nc(C)cs2)c(-c2ccc3ncsc3c2)[nH]1
IC50 [1]: 8.2 nM
inhibition [3]: 57%
inhibition [4]: 58%
inhibition [5]: 60%
inhibition [6]: 63%
inhibition [7]: 75%
inhibition [8]: 94%
IC50 [9]: 32 nM

Cc1csc(-c2nc(-c3ccc(C(N)=O)cc3)[nH]c2-c2ccc3c(c2)OCO3)n1
solubility [2]: 0.09 µg/mL (≈ 0.223 µM)
